Legend:
[1] = target: lectin Concanavalin A (ConA) (Canavalia ensiformis, UniProt P02866); settings: non-binding sugar used as control, free-solution BSI with ConA; cited from earlier work
[2] = test system: FAAH in small unilamellar vesicles; CXCR4 receptor; GABAB receptor in CHO cell membranes; assay: BSI label-free free-solution binding assays on membrane proteins (negative controls); settings: negative control compound, even the highest concentrations
Description: Membrane-associated proteins and their interactions are of paramount interest in the design of clinical therapeutics, accounting for almost 70% of existing drug candidate targets (Krummel and Davis (2002) Current Opinion in Immunology 14: 66-74; Overington et al. (2006) Nature Reviews Drug Discovery 5: 993-996). To date, it has been difficult to perform direct binding assays on cellular membranes except by down-stream signal transduction or the use of isotope labeling methods. BSI facilitated label-free, free solution binding assays on proteoliposomes (Bracey et al. (2002) Science 298: 1793-1796; Jass et al. (2000) Biophysical Journal 79: 3153-3163) from full-length, functional membrane proteins, from both natural and recombinant sources (Kussrow et al. (2010) Chembiochem DOI: 10.1002/cbic.201000671). […]

Row | SMILES | BSI binding signal [1] | BSI signal [2]
1 | O=C[C@H](O)[C@@H](O)[C@@H](O)[C@H](O)CO [galactose] | no binding signal | 
2 | C[C@H](N)C(=O)O [L-alanine] |  | Little or no BSI signal
3 | CC(C)CCC[C@@H](C)[C@H]1CC[C@H]2[C@@H]3CC=C4C[C@@H](O)CC[C@]4(C)[C@H]3CC[C@]12C [cholesterol] |  | Little or no BSI signal

Source: patent US11293863B2, “Robust interferometer and methods of using same” (Vanderbilt University, priority 2015, dated 2022)
